Measured values as given in article PMC7910296, “Phosphorescent Ir(III) complexes conjugated with oligoarginine peptides serve as optical probes for in vivo microvascular imaging” (Scientific Reports, 2021).

How the values were obtained:
[1] = system: vascular endothelium; assay: In vivo luminescence intensity and lifetime imaging after intravenous administration
[2] = Phosphorescence quantum yield (absolute photoluminescence quantum yield system); format: physicochemical; conditions: room temperature
Experimental: (§1) Phosphorescence lifetimes were measured with a time-correlated single-photon counting fluorimeter (Quantaurus-Tau C11367G, Hamamatsu Photonics). A laser diode (M12488-35, Hamamatsu Photonics; 481 nm, pulse width 70 ps) was used as the excitation light source. The temperature of the sample solution was controlled by circulating water through a jacket cuvette holder from a temperature controlled bath (RTE7, Neslab). Phosphorescence quantum yields were determined on an absolute photoluminescence quantum yield measurement system (C9920-02, Hamamatsu Photonics) consisting of a Xe arc lamp, a monochromator, an integrating sphere, and a multichannel detector[41].

[3] = Absorption and emission spectra; format: physicochemical; conditions: MeCN with 1% DMSO, room temperature
Experimental: Absorption and emission spectra were recorded on a UV–Vis spectrophotometer (Ubest V-550, JASCO) and a photonic multichannel analyzer PMA-12 (C11027-01, Hamamatsu Photonics) equipped with a monochromatized Xe arc lamp, respectively. The emission spectra were fully corrected for spectral sensitivity.

[4] = Water solubility / aggregate formation in aqueous solution; format: physicochemical
Description: Ir(III) complexes BTQ-Rn (n = 4, 8, 12, 16) with different lengths of arginine peptides in the ligand (Fig. 1) were obtained by chemical synthesis, including solid-phase synthesis of the peptides. The synthetic details and characterization of BTQ-Rn are described in Supplementary Information. We first examined the spectral and photophysical properties of the synthesized BTQ-Rn (n = 4, 8, 12, 16) in MeCN and Tris–HCl buffer (pH 7.0) and compared them to the parent complex BTQphen. Figure 2A,B show the absorption and emission spectra of BTQphen and BTQ-R12 (a representative BTQ-Rn) in MeCN. […] The first absorption band of BTQ-R12, which has a molar absorption coefficient of 7600 mol^−1 dm^3 cm^−1 at 496 nm, can be assigned to the singlet metal-to-ligand charge transfer (^1MLCT) transition. Emissions appear in the red to near-infrared region, with the maximum at around 660 nm, and show a very large Stokes shift. The emission decay profiles follow single-exponential functions, with lifetimes of 5.7 μs for BTQphen and 5.9 μs for BTQ-R12 in deaerated MeCN, and 0.28 μs for BTQphen and BTQ-R12 in aerated MeCN (Table 1). The extremely long lifetimes in deaerated solution and significant quenching by dissolved oxygen indicate that emission is due to phosphorescence. […]

[5] = Phosphorescence lifetime in solution (time-correlated single-photon counting); format: physicochemical; conditions: 37 °C
Experimental: as §1

Molecule	localization in liver ([1]; living mice, PC6S 50 nmol iv, fluorescence intensity images of liver)	Φp, phosphorescence quantum yield ([2]; aerated MeCN)	Φp0, phosphorescence quantum yield ([2]; deaerated MeCN)	emission maximum [3]	localization in renal cortex ([1]; mouse kidney, about 1 h after intravenous administration (100 nmol; FITC-lectin 1 mg/mL, 50 μL), luminescence intensity images)	aggregate formation ([4]; aqueous solution / Tris–HCl buffer (pH 7.0), from spectra and single-exponential decay)	water solubility ([4]; aqueous solution, in words)	τp, phosphorescence lifetime ([5]; aerated MeCN) [µs]	τp0, phosphorescence lifetime ([5]; deaerated MeCN) [µs]
CCN(CC)c1ccc2cc3cc(-c4nc5ccccc5s4)c(=O)oc3cc2c1 [PC6S, reference compound]	taken up into hepatocytes and likely accumulates in LDs and the ER	–	–	–	–	–	–	–	–
(btq)2Ir(phen-pipe) [BTQphen]	–	0.015	0.32	around 660 nm	localized in tubular cells rather than in capillaries	forms aggregates	extremely low water solubility	0.28	5.7
